# Measurements as given in patent publication US7601746B2 (Shionogi & Co., Ltd., priority 2003, dated 2009).
# Target: T1, human TPO receptor (hTPOR) (Homo sapiens, UniProt P40238)
# T1 construct: expressed in transfected cells; host or cells: BaF-B03 (murine IL-3 dependent cell line)
# T1 sequence (P40238 26-635): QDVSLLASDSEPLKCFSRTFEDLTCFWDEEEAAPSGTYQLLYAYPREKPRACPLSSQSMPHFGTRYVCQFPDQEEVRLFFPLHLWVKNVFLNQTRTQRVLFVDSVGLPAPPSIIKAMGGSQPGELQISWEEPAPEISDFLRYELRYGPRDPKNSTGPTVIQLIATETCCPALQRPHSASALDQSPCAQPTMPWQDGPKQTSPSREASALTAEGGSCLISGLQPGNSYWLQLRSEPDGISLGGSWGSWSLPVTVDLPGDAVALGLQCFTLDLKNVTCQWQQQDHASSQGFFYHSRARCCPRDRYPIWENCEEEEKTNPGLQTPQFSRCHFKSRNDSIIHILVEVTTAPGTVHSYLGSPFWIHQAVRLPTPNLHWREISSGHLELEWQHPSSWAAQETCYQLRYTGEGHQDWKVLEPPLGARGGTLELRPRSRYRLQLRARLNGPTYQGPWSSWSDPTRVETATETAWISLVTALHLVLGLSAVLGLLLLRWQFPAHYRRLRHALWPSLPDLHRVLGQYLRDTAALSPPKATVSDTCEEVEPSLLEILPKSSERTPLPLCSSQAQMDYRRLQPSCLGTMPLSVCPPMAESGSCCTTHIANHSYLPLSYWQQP
# Test: Thrombopoietic activity: proliferation of TPO dependent BaF/hTPOR cells (WST-1, absorbance at 450 nm)
# Format: cell-based
# Conditions: 20 h + 4 h WST-1, ED50 = half concentration of the concentration showing the maximum thrombopoietic activity, Table 1
# Text: The TPO dependent BaF/hTPOR cell line which was established by introducing human TPO receptor (hTPOR) into BaF-B03 cells according to Collins et al (J. Cell. Physiol., 137:293-298 (1988)) was used to test the thrombopoietic activity of the present compound. The DNA sequences and encoded peptide sequences for human hTPOR have been described by Vigon et al (Proc. Natl. Acad. Sci. USA, 89:5640-5644 (1992)). TPO dose not have any ability to support proliferation of interlukin-3 dependent parental cell line BaF-B03. BAF/hTPOR cells were maintained in RPMI medium and WEHI-3B conditioned medium as a source of murine interleukin-3 (IL-3). These cells were washed and resuspended in RPMI medium without a source of murine IL-3 and seeded into each well of 96-well microtiter plates at a density of 5×10^4 cells per well in the absence or presence of various concentration of hTPO or the present compound. After incubation at 37° C. for 20 hours in the 5% CO2 incubator, 10% WST-1 reagent (Takara Biomedicals, Japan) was added to each wells and the cells were further incubated for 4 hours. The absorbance at 450 nm was measured. Tables 1 and 2 exemplify the ED50 for tested compounds of the present invention, wherein the ED50 is the half concentration of the concentration showing the maximum thrombopoietic activity.
row,Compound,EC50
1,"CCCCCCOC(CC)c1cccc(-c2csc(NC(=O)c3cc(Cl)c(C=C(C)C(=O)O)c(Cl)c3)n2)c1F (stereo not shown) [Compound B83, 3-(2,6-dichloro-4-{4-[2-fluoro-3-(1-n-hexyloxypropyl)phenyl]thiazol-2-ylcarbamoyl}phenyl)-2-methylacrylic acid]",0.72 nM
2,"CCCCOC(CC)c1cccc(-c2csc(NC(=O)c3cc(F)c(C=C(C)C(=O)O)c(F)c3)n2)c1F (stereo not shown) [Compound B37, 3-(4-{4-[3-(1-n-butyloxypropyl)-2-fluorophenyl]thiazol-2-ylcarbamoyl}-2,6-difluorophenyl)-2-methylacrylic acid]",0.88 nM
3,"CCCCCOC(CCCC)c1cccc(-c2csc(NC(=O)c3cc(Cl)c(C=C(C)C(=O)O)c(Cl)c3)n2)c1F (stereo not shown) [Compound B70, 3-(2,6-dichloro-4-{4-[2-fluoro-3-(1-n-pentyloxypentyl)phenyl]thiazol-2-ylcarbamoyl}phenyl)-2-methylacrylic acid]",0.43 nM
4,"CCCCCCOC(C)c1cccc(-c2csc(NC(=O)c3cc(Cl)c(C=C(C)C(=O)O)c(Cl)c3)n2)c1F (stereo not shown) [Compound B99, 3-(2,6-dichloro-4-{4-[2-fluoro-3-(1-n-hexyloxyethyl)phenyl]thiazol-2-ylcarbamoyl)phenyl]-2-methylacrylic acid]",0.59 nM
5,"CCCCCCCCCCC(OC)c1cccc(-c2csc(NC(=O)c3cc(Cl)c(/C=C(\C)C(=O)O)c(Cl)c3)n2)c1OC (stereo not shown) [Compound B1060, (E)-3-(2,6-dichloro-4-{4-[2-methyloxy-3-(1-methyloxy-undecyl)phenyl]thiazol-2-ylcarbamoyl}phenyl)-2-methylacrylic acid]",3.9 nM
6,"CC(=Cc1c(Cl)cc(C(=O)Nc2nc(-c3cccc(CCCOC(C)C)c3F)cs2)cc1Cl)C(=O)O [Compound B94, 3-(2,6-dichloro-4-{4-[2-fluoro-3-(3-isopropyloxypropyl)phenyl]thiazol-2-ylcarbamoyl)phenyl]-2-methylacrylic acid]",0.97 nM
7,"CCCCCCC(OC)c1cccc(-c2csc(NC(=O)c3cc(F)c(C=C(C)C(=O)O)c(F)c3)n2)c1F (stereo not shown) [Compound B23, 3-(2,6-difluoro-4-{4-[2-fluoro-3-(1-methyloxyheptyl)phenyl]thiazol-2-ylcarbamoyl}phenyl)-2-methylacrylic acid]",1.23 nM
8,"CCCCOCCCc1cccc(-c2csc(NC(=O)c3cc(Cl)c(C=C(C)C(=O)O)c(Cl)c3)n2)c1F [Compound B93, 3-(4-{4-[3-(3-n-butyloxypropyl)-2-fluorophenyl]thiazol-2-ylcarbamoyl}-2,6-dichlorophenyl]-2-methylacrylic acid]",0.91 nM
9,"CCCCCCOCCc1cccc(-c2csc(NC(=O)c3cc(F)c(/C=C(\C)C(=O)O)c(F)c3)n2)c1OC [Compound B1926, (E)-3-(2,6-difluoro-4-{4-[3-(2-hexyloxyethyl)-2-methyloxyphenyl]thiazol-2-ylcarbamoyl)phenyl)-2-methylacrylic acid]",15.6 nM
10,"CCCCOCCCc1cccc2c1CCc1sc(NC(=O)c3cc(F)c(C=C(C)C(=O)O)c(F)c3)nc1-2 [Compound A5, 3-{4-[6-(3-n-butyloxypropyl)-4,5-dihydronaphto[1,2-d]thiazol-2-ylcabamoyl]-2,6-difluorophenyl}-2-methylacrylic acid]",1.91 nM
11,"CCC(CCCc1cccc(-c2csc(NC(=O)c3cc(F)c(C=C(C)C(=O)O)c(F)c3)n2)c1F)OC (stereo not shown) [Compound B12, 3-(2,6-difluoro-4-{4-[2-fluoro-3-(4-methyloxyhexyl)phenyl]thiazol-2-ylcarbamoyl}phenyl)-2-methylacrylic acid]",2.1 nM
12,"CCCCCCCCCCOCc1cccc(-c2csc(NC(=O)c3cc(F)c(C=C(C)C(=O)O)c(F)c3)n2)c1F [Compound B32, 3-(2,6-difluoro-4-{4-[2-fluoro-3-(n-decyloxymethyl)phenyl]thiazol-2-ylcarbamoyl}phenyl)-2-methylacrylic acid]",3.03 nM
13,"CCCCCOC(CCC)c1cccc(-c2csc(NC(=O)c3cc(Cl)c(C=C(C)C(=O)O)c(Cl)c3)n2)c1F (stereo not shown) [Compound B80, 3-(2,6-dichloro-4-{4-[2-fluoro-3-(1-n-pentyloxybutyl)phenyl]thiazol-2-ylcarbamoyl}phenyl)-2-methylacrylic acid]",0.7 nM
14,"CCCOCCCc1cccc2c1OCc1sc(NC(=O)c3cc(Cl)c(/C=C(\C)C(=O)O)c(Cl)c3)nc1-2 [Compound A1123, (E)-3-{2,6-dichloro-4-[6-(3-propyloxypropyl)-4H-chromeno[4,3-d]thiazol-2-ylcabamoyl]phenyl}-2-methylacrylic acid]",7.27 nM
15,"CCCCCCCCCCC(OC)c1cccc(-c2csc(NC(=O)c3cc(F)c(C=C(C)C(=O)O)c(F)c3)n2)c1F (stereo not shown) [Compound B47, 3-(2,6-difluoro-4-{4-[2-fluoro-3-(1-methyloxyundecyl)phenyl]thiazol-2-ylcarbamoyl}phenyl)-2-methylacrylic acid]",2.8 nM
16,"CC(=Cc1c(Cl)cc(C(=O)Nc2nc(-c3cccc(CCCOCCC(C)(C)C)c3F)cs2)cc1Cl)C(=O)O [Compound B85, 3-[2,6-dichloro-4-(4-[3-[3-(3,3-dimethylbutyloxy)propyl]-2-fluorophenyl]thiazol-2-ylcarbamoyl)phenyl]-2-methylacrylic acid]",0.88 nM
17,"CCCCCOC(c1cccc(-c2csc(NC(=O)c3cc(F)c(C=C(C)C(=O)O)c(F)c3)n2)c1F)C(C)(C)C (stereo not shown) [Compound B15, 3-(2,6-difluoro-4-{4-[3-(2,2-dimethyl-1-n-pentyloxypropyl)-2-fluorophenyl]thiazol-2-ylcarbamoyl}phenyl)-2-methylacrylic acid]",0.73 nM
18,"CCCCCCc1cccc2c1OCc1sc(NC(=O)c3cc(Cl)c(/C=C(\C)C(=O)O)c(Cl)c3)nc1-2 [Compound A1316, (E)-3-[2,6-dichloro-4-(6-hexyl-4H-chromeno[4,3-d]thiazol-2-ylcabamoyl)phenyl]-2-methylacrylic acid]",5.29 nM
19,COc1c(CCOCCC(C)C)cccc1-c1csc(NC(=O)c2cc(F)c(/C=C(\C)C(=O)O)c(F)c2)n1 [Compound B1954],12.9 nM
20,"CC(=Cc1c(Cl)cc(C(=O)Nc2nc(-c3cccc(CCCOCC(C)(C)C)c3F)cs2)cc1Cl)C(=O)O [Compound B66, 3-[2,6-dichloro-4-(4-{3-[3-(2,2-dimethylpropyloxy)propyl]-2-fluorophenyl]thiazol-2-ylcarbamoyl}phenyl)-2-methylacrylic acid]",0.91 nM
21,"CCOC(c1cccc(-c2csc(NC(=O)c3cc(F)c(C=C(C)C(=O)O)c(F)c3)n2)c1F)C1CCCCC1 (stereo not shown) [Compound B6, 3-(4-{4-[3-(1-cyclohexyl-1-ethyloxymethyl)-2-fluorophenyl]thiazol-2-ylcarbamoyl}-2,6-difluorophenyl)-2-methylacrylic acid]",2.4 nM

# Same assay, conditions: 20 h + 4 h WST-1, ED50 = half concentration of the concentration showing the maximum thrombopoietic activity, Table 2
row,Compound,EC50
1,"CCCCCC(OC)c1cccc(-c2nc(NC(=O)c3cc(Cl)c(/C=C(\OC)C(=O)O)c(Cl)c3)sc2OC)c1F (stereo not shown) [Compound B1861, (Z)-3-(2,6-dichloro-4-{4-[2-fluoro-3-(1-methyloxyhexyl)phenyl]-5-methyoxythiazol-2-ylcarbamoyl}phenyl)-2-methyloxyacrylic acid]",22.8 nM
2,"COc1c(CCOCCCCF)cccc1-c1csc(NC(=O)c2cc(Cl)c(/C=C(\C)C(=O)O)c(Cl)c2)n1 [Compound B2003, (E)-3-[2,6-dichloro-4-(4-{3-[2-(4-fluorobutyloxy)ethyl]-2-methyloxyphenyl}thiazol-2-ylcarbamoyl)phenyl]-2-methylacrylic acid]",22.7 nM
3,"CO/C(=C\c1c(F)cc(C(=O)Nc2nc(-c3cccc(C(CCOC(C)C)OC)c3F)cs2)cc1F)C(=O)O (stereo not shown) [Compound B2012, (Z)-3-(2,6-difluoro-4-{4-[2-fluoro-3-(3-isopropyloxy-1-methyloxypropyl)phenyl]thiazol-2-ylcarbamoyl}phenyl)-2-methyloxyacrylic acid]",24.2 nM
4,"CO/C(=C\c1c(Cl)cc(C(=O)Nc2nc(-c3cccc(C(OC)C(C)(C)C)c3F)c(OC)s2)cc1Cl)C(=O)O (stereo not shown) [Compound B1909, (Z)-3-(2,6-dichloro-4-{4-[2-fluoro-3-(1-methyloxy-2,2-dimethylpropyl)phenyl]-5-methyloxythiazol-2-ylcarbamoyl}phenyl)-2-methyloxyacrylic acid]",25.9 nM
